Literature values as cited in paper PMC9898036, “VIP152 is a selective CDK9 inhibitor with pre-clinical in vitro and in vivo efficacy in chronic lymphocytic leukemia” (Leukemia, 2022).

Test system: CLL patients
Settings: cited from earlier work

In the case of `CCc1cnn2c(NCc3ccc[n+]([O-])c3)cc(N3CCCC[C@H]3CCO)nc12` [dinaciclib], the “patients having a partial response” value is listed as 64%.
